Results taken from patent US7045305B1, “Methods and reagents for targeting organic compounds to selected cellular locations” (The Regents of the University of California, priority 1998, dated 2006).

Columns and labels:
vacuolar H+ pump = experiment: Golgi lumenal pH time course with Golgi-targeted phOx-fluorescein; assay type: cell-based; details: 100 nM, Golgi pH initially ~6.3, individual cells
Procedure: Cells were labeled at two days after transfection, with phOx-fluorophore conjugates by incubation with low concentrations (<100 nM) of the conjugates. […] Images were recorded at room temperature on a K2 BIO microscope (Technical Instruments) equipped with a 60× PlanApo objective (Nikon, N. A. 1.4), coaxial-confocal attachment, and cooled CCD camera (Photometrics). Dual-excitation ratio images of fluorescein were acquired using 440 and 490 nm excitation filters and a 520 nm long pass emission filter (Chroma). Continuous recordings of the fluorescence time course were obtained on a Nikon Diaphot epifluorescence microscope equipped with a 100× PlanApo objective (Nikon, N. A. 1.4), a photomultiplier using a 530 nm bandpass emission filter and an optical filter changer (Model 10-C, Sutter Instrument Co.) containing 440 and 490 nm excitation filters. Cuvette fluorescence measurements were conducted on an SLM 8000c fluorometer (SLM Aminco). Spectra were recorded with 4 nm slit widths; time courses were acquired with 495 nm excitation and a […] longpass emission filter.
Organelle-specific sFv targeting was applied to measure Golgi pH using phOx-fluorescein as the probe. […] The dependence of the fluorescence ratio on pH was measured for Golgi and plasma membrane-expressed sFv (FIG. 4A). […]

[1] = tested on: CHO cells expressing targeted sFv; experiment: Site-specific fluorescent labeling of living CHO cells expressing targeted sFv; assay type: cell-based; details: addition of 1 μM
Procedure: CHO cells (ATCC CRL 9618) were transfected with plasmids encoding targeted sFv using lipofectamine (Gibco) as is known in the art.
Cells were labeled at two days after transfection, with phOx-fluorophore conjugates by incubation with low concentrations (<100 nM) of the conjugates. […] Images were recorded at room temperature on a K2 BIO microscope (Technical Instruments) equipped with a 60× PlanApo objective (Nikon, N. A. 1.4), coaxial-confocal attachment, and cooled CCD camera (Photometrics). Dual-excitation ratio images of fluorescein were acquired using 440 and 490 nm excitation filters and a 520 nm long pass emission filter (Chroma). Continuous recordings of the fluorescence time course were obtained on a Nikon Diaphot epifluorescence microscope equipped with a 100× PlanApo objective (Nikon, N. A. 1.4), a photomultiplier using a 530 nm bandpass emission filter and an optical filter changer (Model 10-C, Sutter Instrument Co.) containing 440 and 490 nm excitation filters. Cuvette fluorescence measurements were conducted on an SLM 8000c fluorometer (SLM Aminco). Spectra were recorded with 4 nm slit widths; time courses were acquired with 495 nm excitation and a 510 mm longpass emission filter.
The various sFv targeting constructs and phOx conjugates were studied in CHO cells. […] For quantitative measurement of organelle pH, the free dye was washed out of the bathing solutions.

## CO/C1=C\C(C)=C\[C@@H](C)[C@@H](O)[C@@H](C)C/C(C)=C/C=C/[C@H](OC)[C@@H]([C@@H](C)[C@@H](O)[C@H](C)[C@@]2(O)C[C@@H](O)[C@H](C)[C@@H](C(C)C)O2)OC1=O [bafilomycin A1]
Vacuolar H+ pump
  change of Golgi pH after addition: promptly alkalinized

## O=C1OC(c2ccccc2)=NC1=CNCCO [phOx-ethanolamine]
[1]
  effect on phOx-Bodipy staining of Golgi (competition): reversed
